Broadly, the melting point is the temperature, or range, at which the solid turns liquid. For the compound `NC(=O)c1cc2c(-c3cccc(NC(=O)c4cccc(C(F)(F)F)c4)c3)ncnc2s1`, the melting point lay in the range of 275 to 278 °C. As for `COC(=S)NCc1cn(-c2ccc(-n3ccc(C=O)c3)cc2)nn1`, the melting point lay within 160 to 162 °C. `O=C(CN1CCCC1=O)NCC(=O)Nc1ccncc1` returned a melting point of 243 to 245 °C.

In turn, `O=Cc1ccccc1Oc1ccc(F)cc1[N+](=O)[O-]` yielded a melting point of 94 to 95 °C. The value for `Cc1nc2ncnn2c2c1c(O)c(O)n2C` was 215 to 217 °C; that for `CNc1ccc2[nH]ncc2c1` was 144 to 146 °C. With `CC(=O)N1CCCC2=C1CCc1cc(Cl)ccc12` the figure was 106 to 108 °C; with `Fc1ccc(C(=Cc2ccccc2)C(F)(F)F)cc1`, 43 to 45 °C. Regarding `CN(C)C=C1CCN(C(=O)c2ccc([N+](=O)[O-])cc2)c2ccccc2C1=O`, the melting point is 180 to 183 °C. `O=C1Nc2ccc(F)cc2C(C#Cc2ccccn2)(C(F)(F)F)N1` (racemic) showed a melting point of 155 °C.

Take `Cc1c(CC2CCc3c(c4ccccc4n3Cc3ccccc3)C2=O)ncn1C(c1ccccc1)(c1ccccc1)c1ccccc1` (centres undefined): the melting point fell in the range of 78 to 80 °C. The compound `FS(F)(F)(F)(F)c1ccc(/C=C/c2nc(COc3ccc(-c4nc(Cn5ccnn5)co4)cc3)co2)cc1` registered a melting point of 172 to 174 °C. The value for `N#CCc1cccc2c(C3CCCCC3)nccc12` was 85.3 to 85.6 °C; that for `CCCNC(=S)NC1=Nc2ccc(OC(F)(F)F)cc2CS1` was 148 to 151 °C.

In the case of `CC(=O)Nc1ncc(-c2cccc3ccccc23)o1`, the melting point lay within 188 to 190 °C. Consider `CCCCCCCNC(=O)Nc1ccccc1C(=O)NCCC(c1ccccc1)c1ccccc1`, for which the melting point amounted to 118 °C.

`CCN(CC)C(=O)Sc1cc(OC)c(OC)cc1C(=O)c1ccccc1` displayed a melting point of 114 to 116 °C.

As to `CC(C)(C)OC(=O)C[C@H](NC(=O)CNC(=O)c1csc(NC(=O)NCc2ccccc2)n1)C(=O)Nc1ccccc1C(=O)OC(C)(C)C`, the melting point stood at 116 °C. With `COC(=O)CCc1cc2nc(Cl)ccc2n1S(=O)(=O)c1ccc2nc(N)sc2c1` the figure was 205 to 215 °C; with `CC(=O)Nc1c(S(N)(=O)=O)cc(C(=O)O)c(Nc2ccccc2)c1NCc1ccco1`, 250 °C; with `O=c1[nH][nH]c(=O)n1CCCCl`, 168 to 170 °C. On to `Nc1c(-c2cccc(Oc3ccccc3)c2)cnc2ncnn12`, for which the melting point fell in the range of 248 to 250 °C.

`CC(C)n1nc(C(=O)Cl)c2ccccc21`: the melting point lay in the range of 63 to 64 °C.

`O=[N+]([O-])c1cc2c(Nc3ccc(F)c(Cl)c3)ncnc2cc1OC1CCCC1`: the melting point was 230 °C. `C=CCN(CC=C)C(=O)n1cnc(S(C)(=O)=O)n1` had a melting point of 52 to 54 °C. With `Nc1ncnc2c1c(-c1ccc(Oc3ccc(OCCO)cc3)cc1)cn2CCO` the figure was 166 °C; with `CCCCCCC(=O)C(NC(=O)C=Cc1ccccc1)C(=O)OC` (centres undefined), 85 to 86 °C. The value for `COc1ccc(Cn2c(=O)oc(=O)c3cc(F)cnc32)cc1` was 143 °C; that for `CCOC(=O)NC(C)C(=O)c1ccc2cc(OC)ccc2c1` (single isomer, unassigned; (+)) was 96 to 97 °C. The value for `Cc1cccc(N)c1C=C(Br)Br` was 42 to 43 °C; that for `CCC(n1cncn1)C(O)(Cn1cncn1)c1ccc(Cl)cc1` (centres undefined) was 168 to 169 °C. As for `CCN(CC)c1ccc(C=O)c(OCCN2CCCCC2)c1`, the melting point fell in the range of 70 to 72 °C. Take `O=C(CC1CCNCC1)c1ccc(N2CCCC2)cc1`: the melting point was 144 to 145 °C. With `O=C(O)c1cc(OCCCOc2ccc(-c3ccccc3)cc2)cc(OCCCOc2ccc(-c3ccccc3)cc2)c1` the figure was 186 to 187 °C. With `COc1cccc(-c2nc3n(n2)Cc2cc(OC)ccc2-3)c1` the figure was 166 to 167 °C. Turning to `COC(=O)N[C@H]1CC[C@H](CCN2CCN(c3cccc(Cl)c3Cl)CC2)CC1`, the melting point is 143 to 147 °C.

Turning to `Cc1cc(=O)c(C(=O)O)c(C)n1C1CC(C)(C)NC(C)(C)C1`, the melting point amounted to 174 °C. With `CC(C)(C)OC(=O)CCc1cccc(-c2nc(=O)c3ccc(F)cc3s2)n1`, the melting point was in the range of 158 to 160 °C.

Compound `CN(CC(=O)Nc1cccc(-c2cc(-c3ccccc3O)nc(NC(=O)c3cccs3)c2C#N)c1)C(=O)OC(C)(C)C` registered a melting point of 143 to 149 °C. With `O=C(N[C@@H](Cc1ccccc1)C(=O)Nc1nncs1)OCc1ccccc1` the figure was 78 to 83 °C. Regarding `COc1ccc(-c2ccc3c(c2)C=C(C(=O)Nc2ccc(CN(C)C4CCC(=O)CC4)cc2)CCS3(=O)=O)cc1`, the melting point was 214 to 218 °C. The value for `O=c1nc(-c2ccccc2)c2cc([N+](=O)[O-])ccc2n1Cc1cccs1` was 219 to 220 °C; that for `NC(=O)c1cc(-c2ccc(Cl)cc2)sc1N` was 255 to 257 °C; that for `COc1ccc(NC(=O)C2C(=O)N(C)C(=S)N(C)C2=O)cc1Oc1ccc(C(F)(F)F)cc1Cl` was 165 to 168 °C.

`CC(C)(C)OC(=O)N1CCN(C2CC2)CC1` came in with a melting point of 65 to 67 °C.

Compound `CCOC(=O)c1cc(OC)ccc1Nc1ccc(O)cc1` came in with a melting point of 134 to 136 °C.

The compound `CCCCCCCCCCNC(=O)c1ccc(N(CC(=O)O)CC(=O)O)cc1` yielded a melting point of 155 to 157 °C. With `CN1CC(CCCCN2CCN(c3ncccn3)CC2)OC1=O` (centres undefined) the figure was 74 to 76 °C; with `CN1C2CCC1CN(c1ccc(-c3cccs3)nn1)C2`, 156 °C. `O=C(NC(Cc1c[nH]c2ccccc12)C(=O)O)C(S)Cc1ccccc1` (centres undefined) had a melting point of 117 to 119 °C. The value for `CN1CCCc2cc(OC(=O)Nc3ccc(Br)cc3)ccc21` was 155 °C. In turn, `Cc1ccc(O)c2c1N(Cc1ccccc1)C(=O)C2(C)C` yielded a melting point of 128 to 129 °C. As to `CCOC1CN(Cc2ccccc2OC)Cc2cc(OC)c(O)cc21` (centres undefined), the melting point was 101 to 102 °C. In turn, `COC(=O)Cc1cccc(NC(=O)NCC(=O)N2[C@@H](C(=O)N3CCCC3)C[C@H](S(=O)(=O)c3ccccc3)[C@H]2c2ccccc2F)c1` (racemic) had a melting point of 156 °C. `O=C(O)c1c(-c2ccccc2)csc1N1C(=O)c2ccccc2C1=O` showed a melting point of 198 to 199 °C. In turn, `Cc1cc(OC(C)c2ccc(-c3ccccc3-c3nnn(C(c4ccccc4)(c4ccccc4)c4ccccc4)n3)cc2)c2ccccc2n1` (centres undefined) gave a melting point of 160 to 161 °C. With `CCCCOc1c(CNC(=O)OC(C)(C)C)n(CC(C)C)c(=O)c2ccc(C(=O)O)cc12` the figure was 185 to 186 °C; with `O[C@H]1CCCN[C@H]1c1ccccc1` (relative stereo), 93 to 95 °C; with `CC(C)(C)OC(=O)NC(CO)COc1noc2ccc(Cl)cc12` (centres undefined), 121 to 122 °C. The value for `Cn1c(CNCC2CCOC2)cc2cc(NC(=O)c3ccc(OCC4CCOC4)cc3)ccc21` (centres undefined) was 131 to 133 °C; that for `CC(=O)NC[C@H]1CN(c2cc(F)c(N3CCC(n4nnc(N5CCN(C#N)CC5)n4)CC3)c(F)c2)C(=O)O1` was 198 to 200 °C; that for `Cc1oc(-c2ccccc2)nc1COc1ccc(CCCCCO)cc1` was 78 to 79 °C. The value for `NS(=O)(=O)c1ccc(-n2nc(C(F)(F)F)cc2-c2ccc(-c3cscn3)cc2)cc1` was 188 to 190 °C. `c1ccc(CN2CCN(c3onc4c3CCc3ccccc3-4)CC2)cc1` had a melting point of 148 to 149 °C. The value for `CC1=C(C)C(F)N(c2ccc(Cl)c(Cl)c2)C1=O` (centres undefined) was 102 to 103 °C; that for `Cc1ccnc(Cl)c1C#N` was 109 to 110 °C. With `CC(=O)Nc1cccc(N(C)C)n1` the figure was 118 to 119 °C. For `O=C(O)c1ccc2cc(O)c(O)cc2c1`, the melting point was in the range of 241 to 250 °C. Compound `O=C(NCc1ccccc1)c1ccccc1-c1ccccc1CNS(=O)(=O)c1cccc(F)c1` had a melting point of 147 °C. With `CC(C)(C)OC(=O)C=C(c1ccc(C#N)s1)n1ccnc1` the figure was 90 to 91 °C. The value for `O=C(O)C(=O)C(=O)Nc1cccc([N+](=O)[O-])c1` was 110 °C. The value for `CNc1nc(-c2cccnc2)nc(SC)c1C(=O)Nc1ccc(OC)cc1` was 184 to 197 °C; that for `Cn1c(C(O)CO)cnc1[N+](=O)[O-]` (centres undefined) was 119 to 121 °C; that for `CSc1nc(OC(F)F)cc(OC(F)F)n1` was 46 to 48 °C.

Compound `CCCC(=O)NCc1nc(-c2ccc3c(c2)Nc2ccccc2S3)cs1` came in with a melting point of 218 to 220 °C. With `COC(=O)c1cc(N)c(C#N)s1` the figure was 187 to 189 °C; with `Cc1ccnc(N=C2SC[C@@H]3Cc4ccccc4CN23)n1`, 179 °C. With `COCCCn1c2cc(Cl)ccc2n2c(C)nnc12` the figure was 136 °C; with `COC(=O)c1cc(OC)c(OCc2ccccc2)c(C23CC4CC(CC(C4)C2)C3)c1`, 229 °C; with `CCn1cc(C(=O)O)c(=O)c2cc(F)c(N3CCC(CNC4CC4)C3)nc21` (centres undefined), 271 to 274 °C. The value for `CCOC(=O)c1ccc(OCC2CN(c3ccc(S(C)(=O)=O)nn3)CCO2)cc1` (centres undefined) was 197 °C; that for `CC(C)CNC(=O)C(O)C(CC1CCCCC1)NC(=O)C(Cc1c[nH]cn1)NC(=O)C(CC(=O)N1CCOCC1)Cc1cccc2ccccc12` (mixture of isomers) was 119 to 125 °C. In the case of `O=C1Cc2cccc(Oc3ccccc3O)c2O1`, the melting point fell in the range of 150 to 152 °C.

`CC(C)(CO)C(O)C(Oc1ccc(Cl)cc1)n1cncn1` (centres undefined) came in with a melting point of 110 to 112 °C. The compound `Cc1sc(-c2ccccc2)nc1COc1cc(COc2ncccc2C#N)on1` came in with a melting point of 135 to 136 °C. With `CNc1cc(CC2(C)CC3C(=C(C)C(C)=C(N)C3C)O2)ccc1-c1ccn[nH]1` (centres undefined) the figure was 113 to 117 °C; with `CC1(C)Cc2cc(S(=O)(=O)Cl)ccc2O1`, 75 to 77 °C. In the case of `CS(=O)c1nc(-c2ccccc2)c(-c2ccccc2)s1` (centres undefined), the melting point was 102 to 103 °C. Turning to `N#Cc1cccc(C=CC=O)c1`, the melting point was determined as 100 °C.

These data come from a melting point compilation (Tetko et al.; mined from patent text by program, amines drawn as free bases though some values may be those of a salt).
